From PubChem BioAssay AID608 (Sanford-Burnham Center for Chemical Genomics, 2007)
Active and inactive are the calls of the source. The rule behind the calls is not given here.

Each molecule was assayed against Peptidyl-prolyl cis-trans isomerase FKBP1A (Homo sapiens) (UniProt P62942) (assay: FKBP12 binders, biophysical, NMR detection (AID 608)). Settings: NMR binding, purified FKBP12.
Peptidyl-prolyl cis-trans isomerase FKBP1A (Homo sapiens), sequence (P62942 whole entry, looked up): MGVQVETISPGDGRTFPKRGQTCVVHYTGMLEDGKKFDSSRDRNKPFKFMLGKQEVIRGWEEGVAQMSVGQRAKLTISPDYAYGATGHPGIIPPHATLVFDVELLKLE

| SMILES | Kd |
| --- | --- |
| C[C@H]1O[C@@H](O[C@H]2[C@@H](O)C[C@H](O[C@H]3[C@@H](O)C[C@H](O[C@H]4CC[C@]5(C)C6CC[C@]7(C)[C@@H](C8=CC(=O)OC8)CC[C@]7(O)C6CC[C@@H]5C4)O[C@@H]3C)O[C@@H]2C)C[C@H](O)[C@@H]1O (some centres undefined) | > 4 mM (inactive) |
| COc1ccc(-c2coc3cc(OC)cc(OC)c3c2=O)cc1 | > 4 mM (inactive) |
| NC1=NC(=O)CC(C(=O)Nc2ccccc2)S1 (centres undefined) | > 4 mM (inactive) |
| O=C1CSC(=O)N1CNc1ccccc1 | > 4 mM (inactive) |
| OCc1cc(F)cc2c1OCOC2 | > 4 mM (inactive) |
| O=C(CS(=O)(=O)c1ccccc1)N1CCCCCC1 | > 4 mM (inactive) |
| CC(=O)CNc1cc(CNC(C)=O)c(C)cc1C | > 4 mM (inactive) |
| CC(Sc1ncn[nH]1)C(=O)O (centres undefined) | > 4 mM (inactive) |
| Cc1ccc2nc(SCC(=O)O)nc(C)c2c1 | > 4 mM (inactive) |
| Cc1ccc2c(c1)CCCN2C(=O)c1ccncc1 | > 4 mM (inactive) |
| COC(=O)[C@@H]1OC(=O)[C@H]2O[C@@]23[C@@]1(C)CCC1[C@@]2(C)CCC(=O)C(C)(C)C2C[C@@H](OC(C)=O)[C@]13C (some centres undefined) | > 4 mM (inactive) |
| CS(=O)(=O)N1CCN(c2ccccc2F)CC1 | > 4 mM (inactive) |
| Nc1ccn(C2O[C@H](CO)[C@@H](O)[C@H]2O)c(=O)n1 (some centres undefined) | > 4 mM (inactive) |
| O=C(O)C1CSC(c2cccnc2)N1 (centres undefined) | > 4 mM (inactive) |
| O=C(Nc1c[nH]c(=O)[nH]c1=O)c1ccccc1F | > 4 mM (inactive) |
| Cn1c(NCC(=O)O)nc2c1c(=O)[nH]c(=O)n2C | > 4 mM (inactive) |
| COc1cc(C(C)=O)ccc1OC(=O)N1CCOCC1 | > 4 mM (inactive) |
| NC(=O)C1CCN(c2ccc(Cl)nn2)CC1 | > 4 mM (inactive) |
| O=C(Nc1ccc(OCC(=O)N2CCOCC2)cc1)c1ccccc1F | inactive |
| O=C(O)Cn1cc(C(F)(F)F)ccc1=O | > 4 mM (inactive) |
| O=C(O)c1ccc(NCc2cccnc2)cc1 | > 4 mM (inactive) |

| SMILES | Kd |
| --- | --- |
| O=C(Nc1cccnc1)Nc1ccc2c(c1)OCO2 | > 4 mM (inactive) |
| CC1(O)CC2C=CC1C2 (centres undefined) | > 4 mM (inactive) |
| C[C@@H]1CCC2[C@](C)(CO)[C@@H](O)CC[C@]2(C)[C@@]12CC[C@@](CO)(CCO)O2 (some centres undefined) | > 4 mM (inactive) |
| Nc1nncn1C(=O)c1c(Cl)cccc1Cl | > 4 mM (inactive) |
| O=C(Nc1nccs1)c1cccnc1 | > 4 mM (inactive) |
| Cc1oc(-c2ccccc2)cc1CO | > 4 mM (inactive) |
| O=C(Cn1c(-c2cscn2)nc2ccccc21)Nc1ccc(Cl)cc1 | > 4 mM (inactive) |
| O=C(O)C1Cc2ccccc2N1 (centres undefined) | > 4 mM (inactive) |
| O=C(O)c1onc2ccccc12 | > 4 mM (inactive) |
| Cc1ccc2cccc(SCC(=O)N3CCOCC3)c2n1 | inactive |
| CC(=O)O[C@H]1C[C@@H](OC(C)=O)C(C)(C)C2CC(=O)[C@]3(C)C(CC[C@@]4(C)[C@H](C(=O)O)OC(=O)C5OC543)[C@]21C (some centres undefined) | > 4 mM (inactive) |
| O=C1CCC(C(=O)NCc2ccc(Cl)cc2)N1 (centres undefined) | > 4 mM (inactive) |
| Nc1ccccc1C(=O)CC(N)C(=O)O (centres undefined) | > 4 mM (inactive) |
| Cc1ccc(N2CCN(C(=O)c3ccccc3)CC2)c(C)c1 | > 4 mM (inactive) |
| OCn1nnn(-c2ccccc2)c1=S | > 4 mM (inactive) |
| CS(=O)(=O)Nc1ccc(C(=O)N2CCCCC2)cc1 | > 4 mM (inactive) |
| CC(=O)c1c(C)nn(CC(=O)O)c1C | > 4 mM (inactive) |
| Cc1cc(C(=O)N2CCN(c3ncccn3)CC2)cs1 | > 4 mM (inactive) |
| CC(C)Nc1nc2n(c(=O)n1)CCN2C(C)C | > 4 mM (inactive) |
| Cc1c(C(=O)N2CCOCC2)oc2c1C(=O)CC(C)(C)C2 | > 4 mM (inactive) |
| O=C(Nn1cnnc1)c1csc2ccccc12 | > 4 mM (inactive) |

| SMILES | Kd |
| --- | --- |
| CC(=O)Nc1ccc(N2CCOCC2)cc1 | > 4 mM (inactive) |
| COc1ccc2c(c1)c1n[nH]c(=S)nc1n2C | > 4 mM (inactive) |
| O=c1ccnc(Nc2ccccc2O)[nH]1 | > 4 mM (inactive) |
| Cc1ccc(CO)o1 | > 4 mM (inactive) |
| COc1ccccc1NC(=O)NC(N)=O | > 4 mM (inactive) |
| Cc1nn2c(=O)/c(=C/c3cccc(F)c3)sc2nc1=O | > 4 mM (inactive) |
| O=C(NCc1ccco1)c1cccc(F)c1 | > 4 mM (inactive) |
| CCOC(=O)N1CCN(c2ncnc3c2cnn3C)CC1 | > 4 mM (inactive) |
| c1csc(-c2nnc3ccccn23)c1 | > 4 mM (inactive) |
| O=C(Nc1nnc(-c2ccncc2)o1)c1cccs1 | > 4 mM (inactive) |
| NC(=O)CSc1nnnn1-c1ccccc1 | > 4 mM (inactive) |
| COc1cc2c3cc1Oc1c(OC)c(OC)cc4c1[C@@H](Cc1cccc(c1)Oc1ccc(c(O)c1)C[C@@H]3N(C)CC2)N(C)CC4 | > 4 mM (inactive) |
| NC(=O)CN=Cc1c(O)[nH]c2ccccc12 | > 4 mM (inactive) |
| Cc1ccc2cc(CO)ccc2n1 | > 4 mM (inactive) |
| COC(=O)c1ccc2snnc2c1 | > 4 mM (inactive) |
| O=C(O)c1cn(-c2ccccc2)nc1-c1cccnc1 | > 4 mM (inactive) |
| CON(C)C(=O)Nc1ccc(Cl)cc1 | > 4 mM (inactive) |
| NC(=O)/C=C/C(=O)Nc1ccccc1 | > 4 mM (inactive) |
| Cc1cc(N2CCN(C)CC2)ncn1 | > 4 mM (inactive) |
| CC(C)=NNC(=O)C(=O)NC(C)(C)C | > 4 mM (inactive) |
| COc1c2c(c(CC=C(C)C)c3oc(=O)c(-c4ccc(O)cc4)c(O)c13)OC(C)(C)C=C2 | > 4 mM (inactive) |

| SMILES | Kd |
| --- | --- |
| Cc1cc(C)n(CCC(=O)O)n1 | > 4 mM (inactive) |
| CCOC(=O)c1nc2ccccc2c(=O)n1N | > 4 mM (inactive) |
| N=Nc1c(O)[nH]c2ccccc12 | > 4 mM (inactive) |
| COc1cc2c(cc1OC)C1Cc3ccc(OC)c(OC)c3CN1CC2 (centres undefined) | > 4 mM (inactive) |
| CCOc1ccc(Cl)cc1S(=O)(=O)N1CCCC1 | > 4 mM (inactive) |
| Nc1ccc(OCc2ccccc2)cc1 | > 4 mM (inactive) |
| CCOC(=O)c1[nH]cnc1C(=O)OC(C)C | > 4 mM (inactive) |
| CC(=O)O[C@H]1CC[C@@]2(C)C(=CC(=O)C3C4CCC(C(C)CCCC(C)C)[C@@]4(C)CCC32)C1 (some centres undefined) | > 4 mM (inactive) |
| Cc1cc(N2CCCC2=O)c(N)cc1N | > 4 mM (inactive) |
| COc1ccc2c(c1)O[C@H]1c3ccc(OC)cc3OC[C@@H]21 | > 4 mM (inactive) |
| Cn1cnc2c(=S)[nH]c(=O)n(Cc3ccccc3)c21 | > 4 mM (inactive) |
| NC(=O)CN1CC(=O)NC(=O)C1 | > 4 mM (inactive) |
| CC(=O)Nc1c(C)n(C)n(-c2ccccc2)c1=O | > 4 mM (inactive) |
| CC(=O)Oc1c(C)cc(O)c2ccccc12 | > 4 mM (inactive) |
| Cn1nnc2cc(CN)ccc21 | > 4 mM (inactive) |
| NC(=O)CSc1nc2ccccc2[nH]1 | > 4 mM (inactive) |
| O=C1CSC(=Nc2ccc(O)cc2)N1 | > 4 mM (inactive) |
| Nc1[nH]c(=S)[nH]c(=O)c1-c1ccccc1 | > 4 mM (inactive) |
| CCOC(=O)c1ccc2c(c1)nnn2C | > 4 mM (inactive) |
| O=c1c(O)c(-c2ccc(O)cc2O)oc2cc(O)cc(O)c12 | > 4 mM (inactive) |
| CC1(C)O[C@H]2[C@H](O)C[C@](O)(C(N)=O)C[C@H]2O1 | > 4 mM (inactive) |
